Test results as given in patent US20150284375A1 (AJINOMOTO CO., INC., priority 2012, published 2015).

Each molecule was assayed against T1, human TRPA1 (Homo sapiens, UniProt O75762) (assay: Measurement of TRPA1 antagonist activity (intracellular calcium increase, FLIPR, allylisothiocyanate stimulation)). Details: allylisothiocyanate 20 μM stimulation, FLIPR calcium assay; read-out: antagonism hTRPA1.
T1 construct: expressed in transfected cells; host or cells: Human embryonic kidney-derived 293T cells, transiently transfected with the pcDNA3.1/zeo(+) human TRPA1 plasmid
T1 sequence (O75762 whole entry): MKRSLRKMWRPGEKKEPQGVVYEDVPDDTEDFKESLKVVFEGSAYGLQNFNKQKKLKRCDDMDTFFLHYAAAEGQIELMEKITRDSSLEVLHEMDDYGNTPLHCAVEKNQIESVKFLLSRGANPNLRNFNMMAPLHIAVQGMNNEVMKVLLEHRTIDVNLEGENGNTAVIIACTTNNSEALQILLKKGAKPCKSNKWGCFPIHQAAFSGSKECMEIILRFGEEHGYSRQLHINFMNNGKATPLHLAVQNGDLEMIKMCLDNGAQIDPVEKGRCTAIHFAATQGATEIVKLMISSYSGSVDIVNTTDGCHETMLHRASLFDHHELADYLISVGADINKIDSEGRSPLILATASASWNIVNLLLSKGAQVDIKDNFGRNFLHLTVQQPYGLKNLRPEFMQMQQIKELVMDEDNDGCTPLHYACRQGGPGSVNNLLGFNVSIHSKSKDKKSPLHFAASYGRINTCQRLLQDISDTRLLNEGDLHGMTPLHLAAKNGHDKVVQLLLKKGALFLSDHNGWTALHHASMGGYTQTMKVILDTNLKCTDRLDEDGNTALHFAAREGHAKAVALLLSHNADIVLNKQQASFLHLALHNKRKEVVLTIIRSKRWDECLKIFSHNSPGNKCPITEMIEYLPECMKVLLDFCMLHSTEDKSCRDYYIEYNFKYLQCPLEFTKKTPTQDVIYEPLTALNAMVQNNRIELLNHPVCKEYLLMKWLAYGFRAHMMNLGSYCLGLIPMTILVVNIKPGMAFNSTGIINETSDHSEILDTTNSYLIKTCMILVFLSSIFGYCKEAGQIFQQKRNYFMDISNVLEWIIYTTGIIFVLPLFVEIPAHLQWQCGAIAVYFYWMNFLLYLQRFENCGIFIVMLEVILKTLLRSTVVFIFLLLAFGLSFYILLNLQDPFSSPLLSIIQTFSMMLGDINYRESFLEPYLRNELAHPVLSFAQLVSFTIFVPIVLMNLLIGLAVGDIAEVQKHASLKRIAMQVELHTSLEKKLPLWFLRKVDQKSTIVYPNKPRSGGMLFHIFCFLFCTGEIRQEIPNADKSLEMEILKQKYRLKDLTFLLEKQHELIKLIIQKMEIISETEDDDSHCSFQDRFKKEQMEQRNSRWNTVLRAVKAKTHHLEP
Assay type: cell-based
How it was run: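 IC50 derives from a sigmoid fit of inhibition of the 5-min FLIPR fluorescence change evoked by 20 μM allylisothiocyanate, normalized between agonist and buffer responses. Test substance, diluted in HBSS/20 mM HEPES pH 7.2 plus 0.1% BSA, was applied 10 min beforehand at room temperature to Calcium4-loaded 293T cells transiently expressing human TRPA1.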
For O=C(NCc1ccc(Oc2cccc(C(F)(F)F)c2)cc1)[C@@H]1C=CCN1S(=O)(=O)c1ccc(F)cc1 [Example 151, (2S)-1-(4-fluorophenyl)sulfonyl-N-[[4-[3-(trifluoromethyl)phenoxy]phenyl]methyl]-2,5-dihydropyrrole-2-carboxamide], the IC50 was 290 nM. For O=C(NCc1ccc(Oc2cccc(C(F)(F)F)c2)cc1)[C@@H]1CCCN1S(=O)(=O)c1ccco1 [Example 152, (2S)-1-(2-furylsulfonyl)-N-[[4-[3-(trifluoromethyl)phenoxy]phenyl]methyl]pyrrolidine-2-carboxamide], the IC50 was 460 nM. With O=C(NCc1ccc(Oc2cccc(C(F)(F)F)c2)cc1)[C@@H]1CCCN1S(=O)(=O)c1ccoc1 [Example 153, (2S)-1-(3-furylsulfonyl)-N-[[4-[3-(trifluoromethyl)phenoxy]phenyl]methyl]pyrrolidine-2-carboxamide] the IC50 was 310 nM. O=C(NCc1ccc(Oc2cccc(C(F)(F)F)c2)cc1)[C@@H]1CCCN1S(=O)(=O)c1ccsc1 [Example 154, (2S)-1-(3-thienylsulfonyl)-N-[[4-[3-(trifluoromethyl)phenoxy]phenyl]methyl]pyrrolidine-2-carboxamide] was tested, and the IC50 was 180 nM. O=C(NCc1ccc(Oc2ccnc(C(F)(F)F)c2)cc1)[C@@H]1CCCN1S(=O)(=O)c1ccco1 [Example 155, (2S)-1-(2-furylsulfonyl)-N-[[4-[[2-(trifluoromethyl)-4-pyridyl]oxy]phenyl]methyl]pyrrolidine-2-carboxamide] was tested, and the IC50 was 5700 nM. O=C(NCc1ccc(Oc2ccnc(C(F)(F)F)c2)cc1)[C@@H]1CCCN1S(=O)(=O)c1ccsc1 [Example 156, (2S)-1-(3-thienylsulfonyl)-N-[[4-[[2-(trifluoromethyl)-4-pyridyl]oxy]phenyl]methyl]pyrrolidine-2-carboxamide] was tested, and the IC50 was 1000 nM. Molecule O=C(NCc1cccc(Oc2ccc(C(F)(F)F)cc2)c1)[C@@H]1C[C@H](F)CN1S(=O)(=O)c1ccc(F)cc1 [Example 157, (2S,4S)-4-fluoro-1-(4-fluorophenyl)sulfonyl-N-[[3-[4-(trifluoromethyl)phenoxy]phenyl]methyl]pyrrolidine-2-carboxamide] has an IC50 of 840 nM. Molecule O=C(NCc1cccc(Oc2ccc(C(F)(F)F)cc2)c1)[C@@H]1CC(F)(F)CN1S(=O)(=O)c1ccc(F)cc1 [Example 159, (2S)-4,4-difluoro-1-(4-fluorophenyl)sulfonyl-N-[[3-[4-(trifluoromethyl)phenoxy]phenyl]methyl]pyrrolidine-2-carboxamide] has an IC50 of 210 nM. O=C(NCc1cccc(Oc2ccc(C(F)(F)F)cc2)c1)[C@@H]1C=CCN1S(=O)(=O)c1ccco1 [Example 160, (2S)-1-(2-furylsulfonyl)-N-[[3-[4-(trifluoromethyl)phenoxy]phenyl]methyl]-2,5-dihydropyrrole-2-carboxamide] gave an IC50 of 210 nM. Work on O=C(NCc1cccc(Oc2ccc(C(F)(F)F)cc2)c1)[C@@H]1C=CCN1S(=O)(=O)c1ccsc1 [Example 161, (2S)-1-(3-thienylsulfonyl)-N-[[3-[4-(trifluoromethyl)phenoxy]phenyl]methyl]-2,5-dihydropyrrole-2-carboxamide] yielded an IC50 of 57 nM. For O=C(NCc1cccc(Oc2ccc(C(F)(F)F)cc2)c1)[C@@H]1CCCN1S(=O)(=O)c1ccoc1 [Example 162, (2S)-1-(3-furylsulfonyl)-N-[[3-[4-(trifluoromethyl)phenoxy]phenyl]methyl]pyrrolidine-2-carboxamide], the IC50 was 96 nM. O=C(NCc1cccc(OCc2ccc(C(F)(F)F)cc2)c1)[C@@H]1CCCN1S(=O)(=O)c1ccc(F)cc1 [Example 163, (2S)-1-(4-fluorophenyl)sulfonyl-N-[[3-[[4-(trifluoromethyl)phenyl]methoxy]phenyl]methyl]pyrrolidine-2-carboxamide] gave an IC50 of 27 nM. O=C(NCc1cccc(OCc2ccc(C(F)(F)F)cc2)c1)[C@@H]1C[C@H](F)CN1S(=O)(=O)c1ccc(F)cc1 [Example 164, (2S,4S)-4-fluoro-1-(4-fluorophenyl)sulfonyl-N-[[3-[[4-(trifluoromethyl)phenyl]methoxy]phenyl]methyl]pyrrolidine-2-carboxamide] gave an IC50 of 450 nM. O=C(NCc1cccc(OCc2ccc(C(F)(F)F)cc2)c1)[C@@H]1C[C@@H](F)CN1S(=O)(=O)c1ccc(F)cc1 [Example 165, (2S,4R)-4-fluoro-1-(4-fluorophenyl)sulfonyl-N-[[3-[[4-(trifluoromethyl)phenyl]methoxy]phenyl]methyl]pyrrolidine-2-carboxamide] was tested, and the IC50 was 150 nM. O=C(NCc1cccc(OCc2ccc(C(F)(F)F)cc2)c1)[C@@H]1CC(F)(F)CN1S(=O)(=O)c1ccc(F)cc1 [Example 166, (2S)-4,4-difluoro-1-(4-fluorophenyl)sulfonyl-N-[[3-[[4-(trifluoromethyl)phenyl]methoxy]phenyl]methyl]pyrrolidine-2-carboxamide] showed an IC50 of 110 nM. O=C(NCc1cccc(OCc2ccc(C(F)(F)F)cc2)c1)[C@@H]1[C@@H](O)CCN1S(=O)(=O)c1ccc(F)cc1 [Example 167, (2S,3S)-1-(4-fluorophenyl)sulfonyl-3-hydroxy-N-[[3-[[4-(trifluoromethyl)phenyl]methoxy]phenyl]methyl]pyrrolidine-2-carboxamide] showed an IC50 of 240 nM. With O=C(NCc1cccc(OCc2ccc(C(F)(F)F)cc2)c1)[C@@H]1[C@H](O)CCN1S(=O)(=O)c1ccc(F)cc1 [Example 168, (2S,3R)-1-(4-fluorophenyl)sulfonyl-3-hydroxy-N-[[3-[[4-(trifluoromethyl)phenyl]methoxy]phenyl]methyl]pyrrolidine-2-carboxamide] the IC50 was 2200 nM. O=C(NCc1cccc(OCc2ccc(C(F)(F)F)cc2)c1)[C@@H]1C[C@@H](O)CN1S(=O)(=O)c1ccc(F)cc1 [Example 169, (2S,4R)-1-(4-fluorophenyl)sulfonyl-4-hydroxy-N-[[3-[[4-(trifluoromethyl)phenyl]methoxy]phenyl]methyl]pyrrolidine-2-carboxamide] showed an IC50 of 290 nM. With O=C(NCc1cccc(OCc2ccc(C(F)(F)F)cc2)c1)[C@@H]1C[C@H](O)CN1S(=O)(=O)c1ccc(F)cc1 [Example 170, (2S,4S)-1-(4-fluorophenyl)sulfonyl-4-hydroxy-N-[[3-[[4-(trifluoromethyl)phenyl]methoxy]phenyl]methyl]pyrrolidine-2-carboxamide] the IC50 was 1700 nM. Molecule O=C(NCc1cccc(OCc2ccc(C(F)(F)F)cc2)c1)[C@@H]1[C@H]2C[C@H]2CN1S(=O)(=O)c1ccc(F)cc1 [Example 171, (1R,4S,5S)-3-(4-fluorophenyl)sulfonyl-N-[[3-[[4-(trifluoromethyl)phenyl]methoxy]phenyl]methyl]-3-azabicyclo[3.1.0]hexane-4-carboxamide] has an IC50 of 1900 nM. O=C(NCc1cccc(OCc2ccc(C(F)(F)F)cc2)c1)[C@@H]1[C@@H]2C[C@@H]2CN1S(=O)(=O)c1ccc(F)cc1 [Example 172, (1S,4S,5R)-3-(4-fluorophenyl)sulfonyl-N-[[3-[[4-(trifluoromethyl)phenyl]methoxy]phenyl]methyl]-3-azabicyclo[3.1.0]hexane-4-carboxamide] was tested, and the IC50 was 1200 nM. O=C(NCc1cccc(OCc2ccc(C(F)(F)F)cc2)c1)[C@@H]1C[C@H]2C[C@H]2N1S(=O)(=O)c1ccc(F)cc1 [Example 173, (1R,3S,5R)-4-(4-fluorophenyl)sulfonyl-N-[[3-[[4-(trifluoromethyl)phenyl]methoxy]phenyl]methyl]-4-azabicyclo[3.1.0]hexane-3-carboxamide] showed an IC50 of 99 nM.
